We go through 5 compounds from publication PMC10308769, “First reported double drug–drug interaction in a cancer renal patient under everolimus treatment: therapeutic drug monitoring and review of literature” (European Journal of Medical Research, 2023).

Entries after “also recorded” stand apart in the source; their conditions may differ. Where two headings read alike, the source gives them in different places.

Series [1] has as its system renal cell carcinoma (RCC). The experiment in a line: Clinical course of the case patient: toxicities, response, PFS. Type of series: in vivo. On the procedure:
A person with smoking and epilepsy history was diagnosed from a stage pT3a renal carcinoma in December 2015. Radical right nephrectomy was performed in February 2016. In September 2018, a right lung segmentectomy was practiced due to lepidic adenocarcinoma growth. On February 2021 progression was detected with right adrenal massive bleeding, hilar adenopathy and left renal adrenal metastasis. Nivolumab was initiated as first-line treatment in May 2021 for intermediate-risk clear-cell RCC. […] In December 2021, new progression was detected and second-line treatment with cabozantinib 60 mg daily was started.
(§1) This finding was discussed within the multidisciplinary team, including the oncologist and the pharmacist, and a TDM plan was planned. Method used for analysis was ultra-high-performance liquid chromatography coupled to tandem mass spectrometry.
Everolimus dose was increased from 10 mg QD to 15 mg daily (administered 10 mg, 1 h before breakfast and 5 mg, 1 h before dinner). […] However, a second dose adjustment was needed, 10 mg BID, administered before meals. Two weeks and a month later, new TDM were planned and Cminss were 10.6 ng/ml and 8.7 ng/ml, respectively (Fig. 2). […] Unfortunately, everolimus treatment was stopped on July 2022, due to lung progression, pleural effusion, and respiratory insufficiency, and finally patient died.

In the next series the test system is CYP3A4. Also on record: method as in lexicomp and drugs databases. Particulars: ref lexicomp and drugs databases; cited from earlier work.
On the set-up of series [2]: method as in PMID 25361989. The note with it: cited from earlier work.
On the set-up of series [3]: method as in PMID 24332451. The note with it: cited from earlier work.
On the set-up of series [4]: method as in product label. The note with it: ref product label, cited from earlier work.
On the set-up of series [5]: method as in PMID 28762135. The note with it: 10 patients, cited from earlier work.
On the set-up of series [6]: method as in earlier work. Particulars: single oral 10 mg dose, cited from earlier work.
On the set-up of series [7]: method as in PMID 16187976. Particulars: single 2 mg dose everolimus with verapamil 80 mg three times daily, 16 healthy subjects; cited from earlier work.
A short description of series [8]: Therapeutic drug monitoring of everolimus in the case patient (UHPLC-MS/MS). Type of series: in vivo. Particulars: human, plasma, oral, co-medication carbamazepine and phenytoin, read-out: Cminss.
Source text: as §1

The subject of series [9] is renal cancer. Also on record: method as in PMID 27279544. The note with it: renal cancer patients, second or third-line therapy; cited from earlier work.
On the set-up of series [10]: method as in PMID 15785960. The note with it: single 2-mg dose everolimus with erythromycin 500 mg TID for 9 days; cited from earlier work.
Series [11] has as its system renal cancer. Also on record: method as in PMID 22209391. Particulars: cited from earlier work.
A further series has as its system breast cancer. The arrangement: method as in PMID 36188563. Particulars: cited from earlier work.

As to `COc1cc2nccc(Oc3ccc(NC(=O)C4(C(=O)Nc5ccc(F)cc5)CC4)cc3)c2cc1OC` [cabozantinib], the adverse events result in series [1] (cabozantinib 60 mg daily second-line treatment, case patient) was “hypertension grade I; also recorded: nausea and diarrhea grade I”.

As for `NC(=O)N1c2ccccc2C=Cc2ccccc21` [carbamazepine], in the series with CYP3A4, the “classification of effect on CYP3A4 metabolism” value is reported as “strong inducers”.

By AUC is commonly meant concentration integrated over time. Turning to `CO[C@H]1C[C@@H]2CC[C@@H](C)[C@@](O)(O2)C(=O)C(=O)N2CCCC[C@H]2C(=O)O[C@H]([C@H](C)C[C@@H]2CC[C@@H](OCCO)[C@H](OC)C2)CC(=O)[C@H](C)/C=C(\C)[C@@H](O)[C@@H](OC)C(=O)[C@H](C)C[C@H](C)/C=C/C=C/C=C/1C` [everolimus], the plasma concentration is 10.1 ng/mL in series [2] (before fenofibrate) and 4.2 ng/mL in [2] (with fenofibrate). Also, the “mean Cminss” value in series [3] (945 patients, lung, renal and neuroendocrine tumors) was 15.65 ng/mL. For the same compound, the entries for the “patients achieving optimal plasmatic concentrations (10-30 ng/ml)” value in series [3] (lung cancer), in series [3] (neuroendocrine tumors) and in series [3] (renal cancer) were 55.2%, 45% and 62.9%, respectively. The “decrease of Cminss” value in series [3] (with CYP3A4 inducers) is 7%. Moreover, in series [3] (with strong CYP3A4 inhibitors), the “increase of Cminss” value is on record as 10%. Besides, the “time to peak concentration” value in [4] (oral) was 1.3 to 1.8 h. Besides, the “time to steady state” value in [4] was 7 to 14 days. The AUC in [5] (5 mg twice daily) is 436 ng·h/mL; in series [5] (10 mg once daily) it was 435 ng·h/mL. Further, the figures for the “maximum concentration (Cmax)” value in series [5] (5 mg twice daily) and in series [5] (10 mg once daily) were 40.3 ng/mL and 61.5 ng/mL, respectively. Moreover, the results for the “minimum steady-state concentration (Cminss)” value in [5] (5 mg twice daily) and in series [5] (10 mg once daily) were 13.7 ng/mL and 9.6 ng/mL, respectively. Also, the entries for the “reduction of AUC” value in [6] (high-fat meal vs fasting) and in series [6] (low-fat meal vs fasting) were 33% and 22%, respectively. The “reduction of Cmax” value was 54% in series [6] (high-fat meal vs fasting) and 42% in [6] (low-fat meal vs fasting). In series [1] (case patient, everolimus third line RCC), this compound had a PFS of 3.7 months. Further, the toxicities entry in [1] (during everolimus treatment) is recorded as “no relevant toxicities were observed”; in [1] (everolimus 10 mg QD, four weeks after starting treatment), “no toxicities”; in series [1] (everolimus 15 mg daily, four weeks later) it was “without relevant toxicities”. In addition, the response to treatment entry in series [1] (during everolimus treatment, third line RCC) is given as “stable disease; also recorded: stabilization disease”. The “increase of AUC” value was 3.5 fold in series [7] and 4.4 fold in series [10]. Besides, the “increase of Cmax” value in series [7] is 2.3 fold; in series [10], 2.0 fold. Moreover, the concentration at 1 month in series [8] (10 mg BID, everolimus 10 mg BID, a month later) turned out to be 8.7 ng/mL. In addition, the concentration at 2 weeks in [8] (10 mg BID, everolimus 10 mg BID, two weeks later) was found to be 10.6 ng/mL. Moreover, the concentration at 4 weeks in series [8] (10 mg QD, everolimus 10 mg QD fasted, four weeks after starting treatment) is 3.7 ng/mL; in [8] (15 mg daily (10 mg + 5 mg), everolimus 15 mg daily (10 mg + 5 mg), four weeks later), 6.4 ng/mL. The “median PFS” value with renal cancer [9] was 3.8 months; in the series with renal cancer [11] (renal cancer patients, comparison group before the drop (earlier line)) it was 5.4 months; with renal cancer [11] (third line, previously treated with two anti-VEGFR tyrosine kinase inhibitor), 4 months; in the series with breast cancer (breast cancer patients) it was 13.7 months. Also, in the series with breast cancer, the “median Cminss in patients with dose-limiting toxicities” value is 19 ng/mL. Further, in the series with breast cancer, the “patients with Cminss below 10 ng/ml” value was 50%.

As for `O=C1NC(=O)C(c2ccccc2)(c2ccccc2)N1` [phenytoin], the “classification of effect on CYP3A4 metabolism” value with CYP3A4 was “strong inducers”.

For Nivolumab, the adverse events result in [1] (nivolumab first-line treatment, case patient) is “dry mouth, grade II anorexia and grade I astheny; also recorded: no immune-mediated toxicities”.
